Molecules are shown by their SMILES. Where a name gives a salt, the structure may show the parent alone. Read-outs that look alike come from different tables or passages of the source.

We go through 21 compounds from US9738655B2, “Tetrahydroisoquinolines containing substituted azoles as factor XIa inhibitors” (BRISTOL-MYERS SQUIBB COMPANY, priority 2013, dated 2017).

Test [1] concerns the target purified human plasma kallikrein (Homo sapiens (Human), UniProt P03952). Nature of the test: Plasma kallikrein enzyme inhibition assay (chromogenic substrate S-2302). It is filed as biochemical.
Protocol: The effectiveness of compounds of the present invention as inhibitors of the coagulation Factors XIa, VIIa, IXa, Xa, XIIa, plasma kallikrein or thrombin, can be determined using a relevant purified serine protease, respectively, and an appropriate synthetic substrate. The rate of hydrolysis of the chromogenic or fluorogenic substrate by the relevant serine protease was measured both in the absence and presence of compounds of the present invention. […] A decrease in the rate of absorbance or fluorescence change in the presence of inhibitor is indicative of enzyme inhibition. […] The results of this assay are expressed as the inhibitory constant, Ki.
Values of Ki were determined by allowing the protease to react with the substrate in the presence of the inhibitor.
The following relationships were used to calculate Ki values: (Vmax*S)/(Km+S); (vo−vs)/vs=I/(Ki(1+S/Km)) for a competitive inhibitor with one binding site; or vs/vo=A+((B−A)/1+((IC50/(I)n))); and Ki−IC50/((1+S/Km) for a competitive inhibitor where:
The target in test [2] is purified human Factor XIa (Homo sapiens (Human), UniProt P03951). Nature of the test: Factor XIa enzyme inhibition assay (chromogenic substrate S-2366).
Setting [3] is: measured at 25° C. (no asterisk).
Where [4] appears, read: read-out: Factor XIa Ki, measured at 25° C.
[5] abbreviates: measured at 25° C. (no asterisk), TFA salt.
[6] abbreviates: read-out: Factor XIa Ki, measured at 25° C., TFA salt.

purified human plasma kallikrein, sequence (P03952 391-638): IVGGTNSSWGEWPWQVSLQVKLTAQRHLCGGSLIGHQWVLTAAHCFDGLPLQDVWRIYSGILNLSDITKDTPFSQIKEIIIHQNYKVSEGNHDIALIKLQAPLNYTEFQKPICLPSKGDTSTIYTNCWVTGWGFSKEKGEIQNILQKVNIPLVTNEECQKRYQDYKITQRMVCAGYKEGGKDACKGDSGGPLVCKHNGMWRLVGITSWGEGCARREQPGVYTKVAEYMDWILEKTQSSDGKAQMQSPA
purified human plasma kallikrein, sequence (P03952 20-390 partner): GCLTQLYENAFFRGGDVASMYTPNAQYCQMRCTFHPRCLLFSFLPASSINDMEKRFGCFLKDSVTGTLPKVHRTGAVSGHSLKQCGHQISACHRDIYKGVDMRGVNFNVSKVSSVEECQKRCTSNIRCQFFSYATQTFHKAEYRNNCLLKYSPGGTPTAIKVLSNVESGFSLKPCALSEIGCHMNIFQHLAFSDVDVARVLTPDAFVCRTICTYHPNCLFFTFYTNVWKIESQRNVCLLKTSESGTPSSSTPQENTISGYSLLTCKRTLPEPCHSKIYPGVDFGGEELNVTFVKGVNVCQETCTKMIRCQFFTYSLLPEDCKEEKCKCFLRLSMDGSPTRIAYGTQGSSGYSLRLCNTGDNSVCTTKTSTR
purified human Factor XIa, sequence (P03951 388-625): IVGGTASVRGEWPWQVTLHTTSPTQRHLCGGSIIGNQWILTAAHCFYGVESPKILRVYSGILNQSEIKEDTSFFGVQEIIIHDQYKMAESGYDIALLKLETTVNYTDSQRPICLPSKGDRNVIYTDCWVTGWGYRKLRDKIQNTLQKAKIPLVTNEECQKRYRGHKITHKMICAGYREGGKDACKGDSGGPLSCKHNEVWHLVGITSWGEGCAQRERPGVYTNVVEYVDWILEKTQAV
purified human Factor XIa, sequence (P03951 19-387 partner): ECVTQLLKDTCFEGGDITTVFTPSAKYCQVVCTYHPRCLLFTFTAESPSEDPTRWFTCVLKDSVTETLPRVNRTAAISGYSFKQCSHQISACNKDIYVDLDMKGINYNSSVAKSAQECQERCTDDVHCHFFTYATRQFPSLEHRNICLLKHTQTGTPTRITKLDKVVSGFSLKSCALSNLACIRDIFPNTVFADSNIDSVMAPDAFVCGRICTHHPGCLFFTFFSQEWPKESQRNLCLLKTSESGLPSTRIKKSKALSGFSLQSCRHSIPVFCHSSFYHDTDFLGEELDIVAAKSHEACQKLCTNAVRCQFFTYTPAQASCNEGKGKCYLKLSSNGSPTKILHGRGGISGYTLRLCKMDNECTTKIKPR

In the case of `Cc1nc(-c2ccc(NC(=O)C3c4cccc(N5CCC(N(C)C)CC5)c4CCN3C(=O)c3cn(-c4cccc(Cl)c4F)nn3)cc2)no1` (stereo not drawn) [Example 98, 2-(1-(3-Chloro-2-fluorophenyl)-1H-1,2,3-triazole-4-carbonyl)-5-(4-(dimethylamino)piperidin-1-yl)-N-(4-(5-methyl-1,2,4-oxadiazol-3-yl)phenyl)-1,2,3,4-tetrahydroisoquinoline-1-carboxamide, bis-TFA salt], the inhibitory constant (Ki) in test [1] (setting [3]) was determined as 5.2 nM; in test [2] (setting [4]) it was 6.69 nM.

On to `O=C(O)c1ccc(NC(=O)C2c3cccc(N4CC[C@H](O)C4=O)c3CCN2C(=O)c2cn(-c3cccc(Cl)c3F)nn2)cc1` (stereo partly drawn) [Example 196, 4-(2-(1-(3-Chloro-2-fluorophenyl)-1H-1,2,3-triazole-4-carbonyl)-5-((S)-3-hydroxy-2-oxopyrrolidin-1-yl)-1,2,3,4-tetrahydroisoquinoline-1-carboxamido)benzoic acid, TFA salt], for which the results for the Ki in test [1] (setting [3]) and in test [2] (setting [4]) were 11.9 nM and 7.1 nM, respectively.

For the compound `COC1CCN(c2cccc3c2CCN(C(=O)c2cn(-c4cccc(Cl)c4F)cn2)C3C(=O)Nc2ccc(C(=O)O)cc2)CC1` (racemic) [Example 271, 4-(2-(1-(3-chloro-2-fluorophenyl)-1H-imidazole-4-carbonyl)-5-(4-methoxypiperidin-1-yl)-1,2,3,4-tetrahydroisoquinoline-1-carboxamido)benzoic acid, TFA salt], the inhibitory constant (Ki) in test [1] (setting [3]) was 7.65 nM; in test [2], < 5 nM.

Turning to `COC(=O)c1ccc2cc(NC(=O)C3c4cccc(-c5cncnc5)c4CCN3C(=O)c3cn(-c4cccc(Cl)c4F)nn3)ccc2n1` (stereo not drawn) [Example 128, methyl 6-(2-(1-(3-chloro-2-fluorophenyl)-1H-1,2,3-triazole-4-carbonyl)-5-(pyrimidin-5-yl)-1,2,3,4-tetrahydroisoquinoline-1-carboxamido) quinoline-2-carboxylate, TFA salt], the Ki in test [1] (measured at 37° C. (*)) was 65.3 nM; in test [2] (setting [4]), < 5 nM.

In the case of `O=C(NC12CCC(C(=O)O)(CC1)CC2)[C@H]1c2cccc(-c3cncnc3)c2CCN1C(=O)c1cn(-c2cccc(Cl)c2F)nn1` (single isomer, unassigned; enantiomer b) [Example 145, 4-(2-{[1-(3-Chloro-2-fluorophenyl)-1H-1,2,3-triazol-4-yl]carbonyl}-5-(pyrimidin-5-yl)-1,2,3,4-tetrahydroisoquinoline-1-amido)bicyclo[2.2.2]octane-1-carboxylic acid, 1 TFA (enantiomer B)], the results for the Ki in test [1] (measured at 37° C. (*)) and in test [2] (setting [4]) were 252 nM and 7.87 nM, respectively.

`CN1CCN(c2cccc3c2CCN(C(=O)c2cn(-c4cccc(Cl)c4F)nn2)[C@H]3C(=O)Nc2ccc(C(=O)O)cc2)CC1=O` [Example 288, (R)-4-(2-(1-(3-chloro-2-fluorophenyl)-1H-1,2,3-triazole-4-carbonyl)-5-(4-methyl-3-oxopiperazin-1-yl)-1,2,3,4-tetrahydroisoquinoline-1-carboxamido)benzoic acid, TFA salt]: the Ki in test [1] (setting [3]) is 824 nM; in test [2] (setting [4]), 155 nM.

Regarding `CN(C)C1CCN(c2cccc3c2CCN(C(=O)c2cnn(-c4cccc(Cl)c4F)c2)[C@@H]3C(=O)Nc2ccc(C(=O)O)cc2)CC1` (single isomer, unassigned) [Example 52, bis-TFA salt], the Ki in test [1] (setting [3]) was 1.79 nM; in test [2] (setting [4]), < 5 nM.

On to `COC(=O)c1ccc(NC(=O)[C@H]2c3cccc(N4CCN(C5COC5)CC4)c3CCN2C(=O)[C@H]2CC(c3cccc(Cl)c3F)=NO2)cc1` [Example 233, Methyl 4-((R)-2-((R)-3-(3-chloro-2-fluorophenyl)-4,5-dihydroisoxazole-5-carbonyl)-5-(4-(oxetan-3-yl)piperazin-1-yl)-1,2,3,4-tetrahydroisoquinoline-1-carboxamido)benzoate, 2 TFA salt], for which the Ki in test [1] (measured at 37° C. (*)) was > 13000 nM; in test [2] (setting [4]), 5.45 nM.

Turning to `CC(C)(O)C1CCN(c2cccc3c2CCN(C(=O)C2CC(c4cccc(Cl)c4F)=NO2)C3C(=O)Nc2ccc(C(=O)O)cc2)CC1` (stereo not drawn) [Example 262, 4-(2-(3-(3-chloro-2-fluorophenyl)-4,5-dihydroisoxazole-5-carbonyl)-5-(4-(2-hydroxypropan-2-yl)piperidin-1-yl)-1,2,3,4-tetrahydroisoquinoline-1-carboxamido)benzoic acid, TFA salt], the Ki in test [1] (setting [5]) was 4.36 nM; in test [2] (setting [6]) it was < 5 nM.

Regarding `COC1CCN(c2cccc3c2CCN(C(=O)c2cnn(-c4cccnc4)c2)C3C(=O)Nc2ccc(C(=O)O)cc2)CC1` (stereo not drawn) [Example 330, 4-(5-(4-methoxypiperidin-1-yl)-2-(1-(pyridin-3-yl)-1H-pyrazolc-4-carbonyl)-1,2,3,4-tetrahydroisoquinoline-1-carboxamido)benzoic acid, 2 TFA salt], the Ki in test [1] (measured at 37° C. (*)) was > 6000 nM; in test [2] (setting [4]), 3510 nM.

Regarding `O=C(O)c1ccc(NC(=O)C2c3cccc(-c4ccc5cn[nH]c5c4)c3CCN2C(=O)c2cn(-c3cccc(Cl)c3F)nn2)cc1` (stereo not drawn) [Example 161, 4-(2-(1-(3-chloro-2-fluorophenyl)-1H-1,2,3-triazole-4-carbonyl)-5-(1H-indazol-6-yl)-1,2,3,4-tetrahydroisoquinoline-1-carboxamido)benzoic acid], the inhibitory constant (Ki) in test [1] (setting [3]) is 2.46 nM; in test [2] (setting [4]), < 5 nM.

On to `O=C(Nc1ccc(-c2ncn[nH]2)cc1)C1c2cccc(-c3cncnc3)c2CCN1C(=O)c1cn(-c2cccc(Cl)c2F)nn1` (stereo not drawn) [Example 131, N-(4-(1H-1,2,4-triazol-5-yl)phenyl)-2-(1-(3-chloro-2-fluorophenyl)-1H-1,2,3-triazole-4-carbonyl)-5-(pyrimidin-5-yl)-1,2,3,4-tetrahydroisoquinoline-1-carboxamide, TFA salt], for which the inhibitory constant (Ki) in test [1] (measured at 37° C. (*)) is 60.3 nM; in test [2] (setting [4]) it was < 5 nM.

As for `O=C1CCC2(CCN(c3cccc4c3CCN(C(=O)c3cn(-c5cccc(Cl)c5F)nn3)C4C(=O)Nc3ccc(C(=O)O)cc3)CC2)O1` (stereo not drawn) [Example 76, 4-(2-(1-(3-chloro-2-fluorophenyl)-1H-1,2,3-triazole-4-carbonyl)-5-(2-oxo-1-oxa-8-azaspiro[4.5]decan-8-yl)-1,2,3,4-tetrahydroisoquinoline-1-carboximido)benzoic acid, TFA], the values for the inhibitory constant (Ki) in test [1] (setting [3]) and in test [2] (setting [4]) were 15.3 nM and < 5 nM, respectively.

`O=C(O)c1ccc(NC(=O)[C@@H]2c3cccc(N4CCOCC4)c3CCN2C(=O)c2cn(-c3cccc(Cl)c3F)cn2)cc1` [Example 91, (S)-4-(2-(1-(3-Chloro-2-fluorophenyl)-1H-imidazole-4-carbonyl)-5-morpholino-1,2,3,4-tetrahydroisoquinoline-1-carboxamido)benzoic acid, TFA salt]: the Ki in test [1] (setting [3]) is 3.84 nM; in test [2] (setting [4]) it was < 5 nM.

Take `O=C(O)c1ccc(NC(=O)C2c3cccc(-c4ccc5c(c4)OCO5)c3CCN2C(=O)c2cn(-c3cccc(Cl)c3F)nn2)cc1` (stereo not drawn) [Example 157, 4-(5-(benzo[d][1,3]dioxol-5-yl)-2-(1-(3-chloro-2-fluorophenyl)-1H-1,2,3-triazole-4-carbonyl)-1,2,3,4-tetrahydroisoquinoline-1-carboxamido)benzoic acid]: the inhibitory constant (Ki) in test [1] (setting [3]) was 29.5 nM; in test [2] (setting [4]) it was < 5 nM.

`COC1CCN(c2cccc3c2CCN(C(=O)c2nnn(-c4cccc(Cl)c4F)c2C)C3C(=O)Nc2ccc(-c3ncc[nH]3)cc2)CC1` (stereo not drawn) [Example 140, N-(4-(1H-Imidazol-2-yl)phenyl)-2-(1-(3-chloro-2-fluorophenyl)-5-methyl-1H-1,2,3-triazole-4-carbonyl)-5-(4-methoxypiperidin-1-yl)-1,2,3,4-tetrahydroisoquinoline-1-carboxamide, 2 TFA salt]: the figures for the Ki in test [1] (measured at 37° C. (*)) and in test [2] (setting [4]) were 2370 nM and 39.7 nM, respectively.

With `CN(C)C1CCN(c2cccc3c2CCN(C(=O)c2cn(-c4cccc(Cl)c4F)cn2)[C@@H]3C(=O)Nc2ccc(C(=O)O)cc2)CC1` (single isomer, unassigned) [Example 55, bis-TFA salt], the results for the Ki in test [1] (setting [3]) and in test [2] (setting [4]) were 0.92 nM and < 5 nM, respectively.

Regarding `COC1CCN(c2cccc3c2CCN(C(=O)c2cc(-c4c(F)ccc(Cl)c4F)no2)C3C(=O)Nc2ccc(C(=O)O)cc2)CC1` (racemic) [Example 265, 4-(2-(3-(3-chloro-2,6-difluorophenyl)isoxazole-5-carbonyl)-5-(4-methoxypiperidin-1-yl)-1,2,3,4-tetrahydroisoquinoline-1-carboxamido)benzoic acid, TFA salt], the inhibitory constant (Ki) is 178 nM in test [1] (setting [3]) and 13.2 nM in test [2].

As for `COC1CCN(c2cccc3c2CCN(C(=O)c2cn(-c4c(F)ccc(Cl)c4F)nn2)C3C(=O)Nc2ccc(C(=O)O)cc2)CC1` (racemic) [Example 254, 4-(2-(1-(3-chloro-2,6-difluorophenyl)-1H-1,2,3-triazole-4-carbonyl)-5-(4-methoxypiperidin-1-yl)-1,2,3,4-tetrahydroisoquinoline-1-carboxamido)benzoic acid, TFA salt], the Ki in test [1] (setting [3]) is 26.7 nM; in test [2] it was < 5 nM.

`O=C(Nc1ccc(-c2ncc[nH]2)cc1)C1c2cccc(-c3cncnc3)c2CCN1C(=O)c1cn(-c2cccc(Cl)c2F)nn1` (stereo not drawn) [Example 126, N-(4-(1H-imidazol-2-yl)phenyl)-2-(1-(3-chloro-2-fluorophenyl)-1H-1,2,3-triazole-4-carbonyl)-5-(pyrimidin-5-yl)-1,2,3,4-tetrahy-droisoquinoline-1-carboxamide, TFA salt]: the Ki in test [1] (measured at 37° C. (*)) is 94 nM; in test [2] (setting [4]), < 5 nM.

Consider `CN1CCN(c2cccc3c2CCN(C(=O)C2CC(c4cccc(Cl)c4F)=NO2)C3C(=O)Nc2ccc(C(=O)O)cc2)CC1=O` (single isomer, unassigned) [Example 282, 4-(2-(3-(3-chloro-2-fluorophenyl)-4,5-dihydroisoxazole-5-carbonyl)-5-(4-methyl-3-oxopiperazin-1-yl)-1,2,3,4-tetrahydroisoquinoline-1-carboxamido)benzoic acid, TFA salt], for which the Ki is 1.87 nM in test [1] (setting [5]) and < 5 nM in test [2] (setting [6]).
